Results taken from patent publication EP3016671B1, “ACTIVELY T[…] PROTEASE-RESISTANT PEPTIDES AS BBB SHUTTLES AND SHUTTLE-CARGO CONSTRUCTS” (Universitat de Barcelona, priority 2013, dated 2015).
Positions of bridges follow the written chain, without caps; N, C: chain ends. Non-standard residues stand in square brackets, D forms with d. Residues, ends and D or L forms follow the SMILES beside them. Dopa = N[C@@H](Cc1ccc(O)c(O)c1)C(=O)O; Dap = NC[C@H](N)C(=O)O

How the values were obtained:
[1] = Transport across the BBB, in vitro human cell assay (co-culture, transwell); format: in vitro ADME; conditions: human cell model, 37 °C, Ringer-HEPES pH 7.4, 200 µM peptides, 25 nM Examples 22 and 23, 30 nM Example 24, 5 nM Example 25, read-out: Papp (x 10^6)
Description: (§1) Due to the great interest to know whether the cargo-BBB shuttle conjugates would be transported across human brain endothelial cells, some of the most relevant cargoes for therapy and diagnosis were assayed in a novel human-based BBB cell model. In this case, the co-culture method used was described by Cecchelli et al. (Cecchelli et al. PloS One. 2014. vol9. pp. e99733) and consists in seeding bovine pericytes in the bottom of a 12-well plate and human endothelial cells derived from hematopoietic stem cells on a transwell filter.
(§2) The compound of interest was disolved or buffer-exhanged and diluted to the desired concentration.
(§3) Cetuximab and cetuximab conjugates were radiolabelled to be assayed in the cell model. Pierce^(R) iodination beads were used following the instructions provided by the manufacturer.
(§4) The apparent permeability was calculated using the same equation as for the bovine cell model.

[2] = system: human endothelial cells derived from hematopoietic stem cells; test: as above; format: in vitro ADME; conditions: human cell model, 37 °C, Ringer-HEPES pH 7.4, 200 µM peptides, 25 nM Examples 22 and 23, 30 nM Example 24, 5 nM Example 25
Description: as §1, §2, §3, §4

[3] = Solubility limit in phosphate buffer saline (dosing solution); format: physicochemical; conditions: in 200 µL phosphate buffer saline
Description: (§5) • 1) In zebra fish: The assay was performed by Neuron Bio (Granada). The protocol was based on the assessment of the acute toxicity of substances on zebra fish (Danio rerio) using a static method. This short-term toxicity assay method replicated the guidelines of the document OECD Draft Guideline for the study of chemicals, Fish Embryo Toxicity (FET) Test (30 May, 2006). 5 concentrations were evaluated (4.6, 10, 22, 46 and 100 mg/L) in water containing 0.1% DMSO. A control group (vehicle: water and 0.1 % DMSO) and a group with 3,4-dicloroaniline were set up to make sure test conditions were reproducible. […] Apamin (SEQ ID NO:16) was dissolved in phosphate buffer saline (vehicle) so that 200 µL would contain 50 nmol of this peptide (corresponding to its LD50). Compound with SEQ ID NO:9 was dissolved in the same buffer so that 200 µL would contain 1200 nmol of this peptide (near the solubility limit). A first group of six mice (male, 20±2 g, Swiss white mice) were injected with 200 µL of apamin. A second group of six mice were injected with 200 µL of compound with SEQ ID NO:9. A third group of mice were injected with 200 µL of vehicle.

[4] = system: bovine brain endothelial cells; test: Transport across the BBB, in vitro bovine cell assay (co-culture, transwell); conditions: bovine cell model, 2 h, 37 °C, Ringer-HEPES pH 7.4; 200 µM (Example 21: 1.75 µM)
Excerpt: (§6) The evaluation method chosen to test the compounds of formula (I) and (II) of the invention was a cell-based assay consisting of a co-culture of brain endothelial cells and astrocytes, which allows to evaluate or to predict the transport of compounds through the BBB. The co-culture method used was described by Gaillard and de Boer in 2008 (Gaillard, PJ et al. "2B-Trans technology: targeted drug delivery across the blood-brain barrier" Methods Mol Biol 2008, vol. 437 pp. 161-175) and consists in seeding of rat astrocytes in a side of a polycarbonate filter (transwell) and bovine brain endothelial cells on the other side of the filter. Under these conditions endothelial cells are able to reach the confluence mimicking the BBB. […] Is commonly used model for permeation studies and toxicity of compounds across the BBB.
(§7) The co-culture assay was used to determine the capacity of the constructs cargo-shuttle to cross the BBB. The apparent permeability of the compounds was measured in triplicate at a concentration of 200 µ M for Examples 1, 2, 3, 5, 10, 13, 15, 16, 17 and 19 and at a concentration of 1.75 µM for Example 21. All the assays were performed with transendothelial electrical resistance values equal or higher than 100 Ω · cm^2 and were carried out in the presence of lucifer yellow to assess the integrity of the cell membrane during the test. The permeability tests were performed in Ringer-HEPES buffer at pH 7.4. The compound of interest was dissolved in the buffer to the desired concentration.
(§8) Once the endothelial cells were confluent on the filters (transwells) these were washed with Ringer-HEPES buffer. The acceptor well was filled with 800 µ L of Ringer-HEPES buffer and the donor well with 200 µL of the solution of the compound to be studied. The system was incubated at 37 °C and 5% CO2 for 2 h. After that time the content of the acceptor and donor compartments were analyzed by HPLC-UV, direct ELISA or fluorescence (depending on cargo anchored to the shuttle). […] The apparent permeability was calculated using the following equation: Papp = (dQ/dt) * (1/A) * (1/CO) (cm/s), where (dQ/dt) is the amount of compound present in the compartment acceptor function of time (nmol/s). A is the area of the filter(cm2) and CO is the initial concentration of the compound applied in the donor compartment (nmol/mL).

[5] = as above; conditions: pH 7.4
Excerpt: as §6, §7, §8

[6] = Stability of the shuttles in human serum; format: in vitro ADME; conditions: 400 µM, HBSS, 37 °C, 90% human serum, 24 h
Description: Regarding to the stability study in human serum of the BBB-shuttle (examples 1, 2, 3 and 5), the peptides were incubated at a concentration of 400 µM in buffer HBSS at 37 °C in the presence of 90% human serum. At a range of times, 100 µL aliquots were collected to which methanol was added in order to precipitate the serum proteins. Samples were centrifuged, filtered and analyzed by HPLC-UV and MALDI-TOF MS to determine the degree of degradation of the BBB-shuttle. […] The half life of the derivative bearing a single disulfide bond was 3 h (examples 2), whereas that of the linear version was no more than 8 min.

[7] = PAMPA assay (passive diffusion); format: in vitro ADME; conditions: 400 µM, pH 7.4, 4 h, 20°C, four replicates
Description: The buffer was prepared from the concentrated solution by plON, following the manufacturer's instructions. The pH was adjusted to 7.4 using a solution of 0.5 M NaOH. The PAMPA sandwich was separated, and the donor well was filled with 195 µL of the compound with SEQ ID NO 9 (400 µM) solution and a stirring magnet was added. The acceptor plate was then placed into the donor plate. Next, 4 µL of the 20 mg/mL phospholipid mixture (PBLEP) in dodecane was added to the filter of each well, and 200 µL of buffer solution was added to each acceptor well. The plate was then covered. Four replicates were performed for each compound. The PAMPA plate was incubated for 4 h at 20°C and under saturated atmosphere in a GUT-BOXTM apparatus under an agitation vigorous enough to reduce the unstirred water layer (UWL) to 25 µm. After the incubation, the sandwich was separated, and an aliquot of each donor and acceptor well was analyzed by RP-HPLC-UV ad MALDI-TOF MS.

mice [8] = test: Acute toxicity (lethality) after intracaudal injection in mice; format: in vivo, Swiss white mice; conditions: six mice, observed up to 24 hours
Description: as §5

[9] = system: bovine brain endothelial cells; test: Evidences of active transport in the bovine cell model (NaN3 inhibition, saturation, 4 °C, abluminal-luminal); format: in vitro ADME; conditions: for Relative transport: saturation
Description: (§9) 1) NaN3 inhibition: Sodium azide (NaN3) is an inhibitor of the resipiratory pathway and, therefore, decreases energy-dependent processes such as transcytosis. […] 2) saturation: Three concentrations of the compound with SEQ ID NO9 were assayed following the procedure of the Example 28.
(§10) The results are consistent with a saturable transport mechanism considering the plateau region has been reached at 100 µM. 3) dramatic decrease in permeability at reduced temperature: The procedure of the Example 28 was followed until the endothelial cells were confluent. To perform the experiment, the filters (transwells) were washed with Ringer-HEPES buffer. The abluminal compartment was filled with 800 µL of Ringer-HEPES and the luminal compartment was filled with 200 µL of the compound with SEQ ID NO 9 in Ringer-HEPES (200 µM). The system was incubated at 4 °C and 5 % CO2 for 2 h. […] The permeability at 4 °C is 0.23±0.04)·10^-6 cm/s, which is dramatically lower (P < 0.0001, unpaired t-test) than at 37 °C. This low transport is consistent with an energy-dependent process. 4) luminal-abluminal transport > abluminal-luminal transport.: The procedure of the Example 28 was followed until the endothelial cells were confluent. […] The abluminal compartment (in this experiment the donor) was filled with 800 µL of the compound with SEQ ID NO 9 in Ringer-HEPES (200 µM) and the luminal compartment (in this experiment the acceptor) with 200 µL Ringer-HEPES.

[10] = as above; format: in vitro ADME; conditions: bovine; 200 µM, 37 °C, 2 h, abluminal compartment as donor
Description: as §9, §10

zebra fish (Danio rerio) = test: Acute toxicity in zebra fish, Fish Embryo Toxicity (FET) test; format: in vivo; conditions: static method, 4.6, 10, 22, 46 and 100 mg/L in water containing 0.1% DMSO
Description: as §5

mice [11] = conditions: amount in 200 µL injected; cited from earlier work

Q: With `CC(C)C[C@@H]1NC(=O)[C@H](C)NC(=O)[C@H]([C@@H](C)O)NC(=O)[C@H](CCC(=O)O)NC(=O)[C@@H]2CCCN2C(=O)[C@H](C)NC(=O)[C@H](CCCCN)NC(=O)[C@@H](NC(=O)[C@@H](N)Cc2ccc(O)c(O)c2)CNC(=O)C[C@@H](C(N)=O)NC1=O` [Example 18, L-Dopa-Dap-Lys-Ala-Pro-Glu-Thr-Ala-Leu-Asp-NH2] (H-[Dopa][Dap]KAPETALD-NH2; lactam 2-10) as the molecule, how does the Papp at 2 h [1] read?
A: 4 ± 1.3 ×10⁻⁶ cm/s

Q: And the “Transport (%) (2h)” value [2]?
A: 6.6±2.1%

Q: For `CC(C)C[C@@H]1NC(=O)[C@H](C)NC(=O)[C@H]([C@@H](C)O)NC(=O)[C@H](CCC(=O)O)NC(=O)[C@@H]2CCCN2C(=O)[C@H](C)NC(=O)[C@H](CCCCN)NC(=O)[C@@H]2CSSC[C@@H](C(=O)N[C@@H](Cc3c[nH]cn3)C(N)=O)NC(=O)[C@H](C)NC(=O)[C@H](C)NC(=O)[C@H](C)NC(=O)[C@H](CSSC[C@H](N)C(=O)N[C@@H](CC(N)=O)C(=O)N2)NC1=O` [Example 1, H-Cys-Asn-Cys-Lys-Ala-Pro-Glu-Thr-Ala-Leu-Cys-Ala-Ala-Ala-Cys-His-NH2] (H-CNCKAPETALCAAACH-NH2; disulfide 1-11, 3-15), which solubility limit [3] is on record?
A: ~1200 nmol

Q: And the “Transport (%) (2h)” value [4]?
A: 3.2±0.3%

Q: And the Papp at 2 h ([5]; bovine)?
A: 2.7 ± 0.3 ×10⁻⁶ cm/s

Q: What about the “degradation in human serum” value [6] of the same molecule?
A: No degradation

Q: What about the “detection in PAMPA by HPLC-UV” value [7] of the same molecule?
A: could not be detected

Q: And the “detection in PAMPA by MALDI-TOF MS” value [7]?
A: only in two out of four replicates was found

Q: And the animals that died (mice [8]; 1200 nmol in 200 µL)?
A: no animal

Q: What about the “animals that showed any envenomation symptoms” value (mice [8]; 1200 nmol in 200 µL) of the same molecule?
A: no animal

Q: And the “permeability at 4 °C” value ([9]; 200 µM, 4 °C, 5 % CO2, 2 h, luminal to abluminal)?
A: 0.23±0.04 ·10^-6 cm/s

Q: And the “transport after NaN3 treatment” value ([9]; 30 min treatment with 1.5 mM sodium azide prior to the permeability assay)?
A: very significantly (p < 0.001) inhibited

Q: What about the Relative transport ([9]; concentration 100 µM) of the same molecule?
A: 100±39

Q: What about the Relative transport ([9]; concentration 200 µM) of the same molecule?
A: 110±6

Q: What about the Relative transport ([9]; concentration 500 µM) of the same molecule?
A: 86±6

Q: And the Papp B→A at 2 h, 200 µM [10]?
A: 1.06 ± 0.03 ×10⁻⁶ cm/s

Q: What about the “lethal parameters of the embryos” value (zebra fish (Danio rerio)) of the same molecule?
A: None of the lethal parameters studied in the embrios treated with the compound with SEQ ID NO:9 was different from those treated with the vehicle

Q: For `CC(C)C[C@@H]1NC(=O)[C@H](C)NC(=O)[C@H]([C@@H](C)O)NC(=O)[C@H](CCC(=O)O)NC(=O)[C@@H]2CCCN2C(=O)[C@H](C)NC(=O)[C@H](CCCCN)NC(=O)[C@@H]2CSSC[C@@H](C(=O)N[C@@H](CCC(N)=O)C(=O)N[C@@H](CCC(N)=O)C(=O)N[C@@H](Cc3cnc[nH]3)C(N)=O)NC(=O)[C@H](CCCNC(=N)N)NC(=O)[C@H](CCCNC(=N)N)NC(=O)[C@H](C)NC(=O)[C@H](CSSC[C@H](N)C(=O)N[C@@H](CC(N)=O)C(=O)N2)NC1=O` [Comparative example 1, H-Cys-Asn-Cys-Lys-Ala-Pro-Glu-Thr- Ala-Leu-Cys-Ala-Arg-Arg-Cys-Gln-Gln-His-NH2, reference compound], which “Transport (%) (2h)” value [4] is on record?
A: 0.9±0.2%

Q: And the Papp [5]?
A: 0.8 ± 0.1 ×10⁻⁶ cm/s

Q: And the LD50 (mice [11])?
A: 50 nmol

Q: And the animals that died (mice [8]; 50 nmol in 200 µL)?
A: two

Q: And the “animals that showed convulsions during the first hours” value (mice [8]; 50 nmol in 200 µL)?
A: All the animals
